Measurements as given in patent publication US20030175314A1, “Pharmaceutical composition for dermal application” (priority 2001, published 2003).

Tests used:
PDE4 = assay: in vitro PDE4 inhibition; format: biochemical; conditions: in vitro studies
Text: (§1) The compound of formula I, 1,3-dicyclopropylmethyl-8-aminoxanthine, is also known by the proposed generic name cipamfylline. The compound and a method of its preparation is disclosed in U.S. Pat. No. 5,734,051 which is hereby incorporated by reference in its entirety.

[1] = tested on: secretion of proinflammatory cytokines such as tumour necrosis factor α (TNF-α), IL-10, IL-12 and IFN-γ; assay: in vitro secretion of proinflammatory cytokines; format: cell-based; conditions: in vitro studies
Text: as §1

lymphocyte proliferation = assay: in vitro lymphocyte proliferation; format: cell-based; conditions: in vitro studies
Text: as §1

solubility = format: physicochemical
Description: Cipamfylline has a pronounced inner crystal bonding resulting in a high melting point (about 310-312° C.) and some degree of hydrophobicity. […] On the other hand, effective delivery of the active component into the epidermis where it can exert its effect requires that the compound be present in a dissolved state in said composition.

[2] = format: physicochemical
Text: More specifically, the solvent comprises a non-toxic glycol or glycol ether selected from the group consisting of propylene glycol, butylene glycol, diethylene glycol and diethylene glycol ether. […] The advantageous dissolution properties of propylene glycol may be explained by the solubility properties of this particular solvent, as determined by the Hildebrand solubility coefficient (J H Hildebrand and R L Scott, The Solubility of Non-Electrolytes, Reinhold, N.Y., 1949). […] Thus propylene glycol has a Hildebrand coefficient within ±2 units of that of cipamfylline which makes it an effective solvent for this active component.

atopic dermatitis = assay: phase II left/right study, cipamfylline cream vs vehicle or Locoid cream (Example 2); format: in vivo, Humans; conditions: for decrease of total severity score: 1 g twice daily, two weeks
Description: In a phase II, multi-centre, randomised, double-blind left/right study comparing cipamfylline cream 1.5 mg/g (formulation B) with the reference vehicle without cipamfylline and with Locoid cream 0.1% (hydrocortisone-17-butyrate 0.1% cream) in patients suffering from atopic dermatitis, patients were randomised to either group (1) cipamfylline cream 1.5 mg/g in reference vehicle vs vehicle or (2) cipamfylline cream 1.5 mg/g in reference vehicle vs Locoid cream. One g of each cream were applied twice daily for two weeks. A total number of 108 patients with a clinical diagnosis of atopic dermatitis, with symmetrical lesions of atopic dermatitis on their arms with a minimum score of 6 in the total severity score (ratings of erythema, oedema/papulation, oozing/crusting, excoriations and lichenification on a scale from 0-3) were included. Excluded were patients with suspected infection in the treatment areas, patients who were receiving other treatment for atopic dermatitis or who were pregnant or planning to become pregnant in the course of the study.

skin = skin irritation by the solvent; format: in vivo; conditions: propylene glycol in itself
Text: Apart from being a solvent for cipamfylline, propylene glycol as a secondary penetration enhancer, i.e. a substance which is capable of penetrating the stratum corneum and “draw” low-molecular components such as therapeutically active components in the vehicle into the epidermis. […] For this reason, propylene glycol has previously been thought to be unsuitable for inclusion as a solvent in compositions intended for the treatment of atopic dermatitis. However, the present vehicle has been specifically designed to exclude all excipients which are capable of penetrating into the epidermis (or being “drawn” into the epidermis by the solvent) and which are not essential for formulation purposes, resulting in a composition which, according to the clinical tests described in Example 3 herein, gives rise to fewer irritative reactions in skin on which the composition is applied compared to a conventional reference formulation. This, of course, is particularly important for dermal formulations intended for application on inflamed, and therefore highly irritated skin so as to avoid a painful burning sensation at the site of application and more long-term irritation such as pain or itching.

| SMILES | inhibition of PDE4 (PDE4) | inhibition of the secretion of proinflammatory cytokines (TNF-α, IL-10, IL-12, IFN-γ) [1] | effect on lymphocyte proliferation (lymphocyte proliferation) | solubility (solubility; water) [µg/mL] | solubility with water as co-solvent (solubility; water present as a co-solvent in an amount of about 25% or more) | Hildebrand coefficient (solubility parameter δ) [2] | decrease of total severity score (atopic dermatitis; group (1) cipamfylline cream 1.5 mg/g (formulation B) vs vehicle, end of study) [%] | decrease of total severity score (atopic dermatitis; group (2) cipamfylline cream 1.5 mg/g (formulation B) vs Locoid cream 0.1%, end of treatment) [%] | patients with local adverse reactions (burning, stinging, pruritus) (atopic dermatitis; treated side, cipamfylline cream 1.5 mg/g vs vehicle) | skin irritation (skin) |
| --- | --- | --- | --- | --- | --- | --- | --- | --- | --- | --- |
| Nc1nc2c([nH]1)c(=O)n(CC1CC1)c(=O)n2CC1CC1 [cipamfylline, 1,3-dicyclopropylmethyl-8-aminoxanthine] | potent and selective inhibitor | inhibitor | no effect | < 50 | greatly decreased | about 13.4 (cal/cm^3)^1/2 | 38 | 30 | 15 % of the patients |  |
| CC(O)CO (centres unmarked) [propylene glycol] |  |  |  |  |  | about 14.8 (cal/cm^3)^1/2 |  |  |  | does not in itself give rise to any significant skin irritation |
